Results taken from patent US5393788A, “Phenylalkyl oxamides” (SmithKline Beecham Corporation, priority 1993, dated 1995).

Legend:
[1] = tested on: TNF production / endotoxic shock; assay: P acnes/LPS treated mice model of endotoxic shock; format: in vivo
Source text: (§1) Two models of endotoxin shock have been utilized to determine in vivo TNF activity for the compounds of Formula (1). The protocol used in these models is described in Badger et al., EPO published Application 0 411 754 A2, Feb. 6, 1991, and in Hanna, WO 90/15534, Dec. 27, 1990.

[2] = tested on: TNF / endotoxin shock; assay: Two in vivo models of endotoxin shock (one or both, not specified); design: species or system mouse; details: for protection from the lethal effects of endotoxin shock: in vivo endotoxin shock models
Source text: as §1

[3] = tested on: serum TNF; assay: LPS/GAL mouse model of endotoxic shock; format: in vivo
Source text: as §1

## COc1ccc(CCNC(=O)C(N)=O)cc1OC1CCCC1 [Example 15, N-[2-(3-Cyclopentyloxy-4-methoxyphenyl)ethyl]oxamide]
[1]; P acnes/LPS model, control group 100% lethality
  survival rate: 80%
[1]; P acnes/LPS treated mice
  TNF production: inhibition of TNF production
[2]
  protection from the lethal effects of endotoxin shock: protection from the lethal effects of endotoxin shock
[3]
  serum TNF levels: reduction in serum TNF levels

## COc1ccc(CCNC(=O)C(N)=O)cc1OC [Example 8, N-[2-(3,4-Dimethoxyphenyl)ethyl]oxamide]
[2]
  protection from the lethal effects of endotoxin shock: protected the animals from endotoxic induced shock
[2]; one or both of the in vivo assays
  in vivo TNF levels: inhibited in vivo TNF levels
